The record followed here is paper PMC11684667 (Molecular cell, 2023).

One experiment concerns CK1δ ΔC. The experiment can be described thus: NMR kinase assay monitoring priming phosphorylation at S662. Conditions: 3-hr real-time NMR kinase assay, 0.2 mM 15N-FASP, 2.5 mM ATP, 1 µM CK1δ ΔC, 25°C, SOFAST HMQC. It is filed as biochemical, human.
The target in experiment [1] is T1, Human CK1δ catalytic domain (residues 1–294) (human, UniProt P48730 1-294).
T1 sequence: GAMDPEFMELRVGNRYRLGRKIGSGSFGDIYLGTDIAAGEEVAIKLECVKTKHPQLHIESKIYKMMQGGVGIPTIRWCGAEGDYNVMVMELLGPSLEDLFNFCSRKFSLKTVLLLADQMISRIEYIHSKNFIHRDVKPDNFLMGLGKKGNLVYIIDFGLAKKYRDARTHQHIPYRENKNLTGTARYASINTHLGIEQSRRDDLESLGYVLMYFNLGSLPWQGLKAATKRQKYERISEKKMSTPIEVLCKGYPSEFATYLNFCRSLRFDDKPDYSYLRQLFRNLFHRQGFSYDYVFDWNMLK
The experiment can be described thus: crystal structure.

Non-standard residues stand in square brackets, D forms with d. No end group written: not given here. pS = N[C@@H](COP(=O)(O)O)C(=O)O

Turning to “WT FASP: wild-type recombinant FASP peptide (residues 645–687) from human PER2 (GAMDPEFWRKKKTGVGTHLTSLALPGKAESVASLTSQCSYSSTIVHVGDKKPQPE; left off: His-NusA, N-terminal, cleaved)”, the “fraction of primed FASP (pS662), completion of priming” value with CK1δ ΔC is given as “approximately 50%”.

B1: human PER2 4pFASP peptide (peptide)
peptide: GKAE[pS]VA[pS]LT[pS]QC[pS]YA
Consider B1, for which, in experiment [1], the binding result is given as “binds”.
